The source of these data is paper PMC10385824, “Antiproliferative and Tubulin-Destabilising Effects of 3-(Prop-1-en-2-yl)azetidin-2-Ones and Related Compounds in MCF-7 and MDA-MB-231 Breast Cancer Cells” (Pharmaceuticals, 2023).

Data set [1] deals with MDA-MB-231 human breast cancer cells. The data set can be described thus: Alamar Blue cell viability (antiproliferative) assay. Format: cell-based. The following applies: 72 h, eight concentrations 0.001-50 μM, mean ± SEM, read-out: Antiproliferative Activity IC50.
The subject of data set [2] is MCF-7 human breast cancer cells. The data set can be described thus: cells.
Data set [3] deals with purified bovine brain tubulin. Description: Tubulin polymerization assay (light scattering, BK006 kit). Format: biochemical. Particulars: compound at 10 μM; for Fold Reduction in Vmax: relative to vehicle. As to the method:
Tubulin polymerization was monitored using the BK006 kit obtained from Cytoskeleton Inc. (Denver, CO, USA). The values reported represent the average values determined from two independent assays. Purified bovine brain tubulin (>99%, 3 mg/mL) in buffer containing PIPES (80 mM, pH 6.9), EGTA (0.5 mM), MgCl2 (2 mM), GTP (1 mM) and glycerol (10%) was incubated at 37 °C in vehicle (1% DMSO or EtOH (v/v) in dH2O) or with compounds 9h, 9q, 9s, 10h, 10p, 10r, 11h, 11p, 11r, 17f (all at 10 µM concentration); CA-4 (10 μM) was used as control. In this assay, light scattering is related to the concentration of polymerised microtubules produced. Tubulin assembly was monitored turbidimetrically at 340 nm at 37 °C in a Spectramax 340 PC spectrophotometer (Molecular Devices, Sunnyvale, CA, USA).

The subject of data set [4] is NCI 60 human cancer cell line panel. Description: NCI 60 cell line screen (SRB), panel values. The following applies: Homo sapiens, 60 cell.
A further data set has as its system MDA-MB-231/ATCC. Description: NCI-60 SRB screen, breast cancer. Format: cell-based, human. Particulars: Homo sapiens, MDA-MB-231, 48 h, read-out: Antiproliferative Activity IC50.
The test system of data set [5] is MCF-7 human breast cancer cells. Particulars: read-out: Antiproliferative Activity IC50; MCF-7; 72 h; eight concentrations (0.001–50 mM [sic]); mean ± SEM; Table 5.
Where [6] appears, read: MCF7, read-out: Antiproliferative Activity IC50, MCF-7, eight concentrations 0.001–50 μM, mean ± SEM, Table 3.
Where [7] appears, read: MCF7, 72 h, read-out: Antiproliferative Activity IC50, MCF-7, 72 h, eight concentrations 1–50 μM, mean ± SEM, Table 2.
Setting [8] is: MCF7, read-out: Antiproliferative Activity IC50.
Setting [9] is: MCF7, read-out: Antiproliferative Activity IC50, MCF-7, eight concentrations 0.001–50 μM, mean ± SEM, Table 4.
[10] abbreviates: MCF7, 72 h, read-out: Antiproliferative Activity IC50, MCF-7, 72 h, eight concentrations (0.001–50 mM [sic]), mean ± SEM, Table 5.

Where two headings read alike, the source gives them in different places.

`C=CC[C@@H]1C(=O)N(c2cc(OC)c(OC)c(OC)c2)[C@H]1c1ccc(C)cc1` (relative stereo) [10g, 3-Allyl-4-p-tolyl-1-olyl-1-(3,4,5-trimethoxyphenyl)azetidin-2-one]: the IC50 in data set [1] was found to be 377 ± 60 nM; in data set [2] (setting [6]), 199 ± 30 nM.

Broadly, the melting point is the temperature of the solid-liquid transition. The compound `C=C(C)C1C(=O)N(c2cc(OC)c(OC)c(OC)c2)C1c1ccccc1` (stereo not shown) [9f, 4-Phenyl-1-(3,4,5-trimethoxyphenyl)-3-(prop-1-en-2-yl)azetidin-2-one] returned a melting point of 108 to 109 °C. Also, in data set [2] (setting [7]), the IC50 was 494 ± 140 nM.

Take `C=C(C)C1C(=O)N(c2cc(OC)c(OC)c(OC)c2)C1c1ccc(OCC)cc1` (stereo not shown) [9i, 4-(4-Ethoxyphenyl)-1-(3,4,5-trimethoxyphenyl)-3-(prop-1-en-2-yl)azetidin-2-one]: the melting point was 100 to 102 °C. Moreover, the IC50 in data set [1] was determined as 171 ± 11 nM. In data set [2] (MCF7, MCF-7), this compound gave an IC50 of 81 nM.

`C=C(C)C1C(=O)N(c2ccc(OC)cc2)C1c1ccccc1` (stereo not shown) [9w, 1-(4-Methoxyphenyl)-4-phenyl-3-(prop-1-en-2-yl)azetidin-2-one]: the melting point is 111 to 113 °C. In data set [2] (setting [7]), the IC50 came out at 33 ± 5 nM.

For `C=CCC1C(=O)N(c2cc(OC)c(OC)c(OC)c2)C1c1ccc(F)cc1` (stereo not shown) [10d, 3-Allyl-4-(4-fluorophenyl)-1-(3,4,5-trimethoxyphenyl) azetidin-2-one], the melting point lay within 89 to 90 °C. The IC50 in data set [2] (setting [8]) is 33800 ± 9040 nM.

The compound `C=CCC1C(=O)N(c2cc(OC)c(OC)c(OC)c2)C1c1ccc(OCc2ccccc2)cc1` (stereo not shown) [10l, 3-Allyl-4-(4-benzyloxyphenyl)-1-(3,4,5-trimethoxyphenyl)azetidin-2-one] showed a melting point of 140 to 141 °C. Further, the IC50 in data set [1] worked out at 486 ± 60 nM. Also, the IC50 in data set [2] (setting [6]) was 7390 ± 670 nM.

Take `C=CCC1C(=O)N(c2cc(OC)c(OC)c(OC)c2)C1c1cccc2ccccc12` (stereo not shown) [10m, 3-Allyl-4-naphthalen-1-yl-1-(3,4,5-trimethoxyphenyl)azetidin-2-one]: the melting point was 139 to 140 °C. The IC50 in data set [1] came to 656 ± 130 nM. For the same compound, the IC50 in data set [2] (setting [6]) worked out at 210 ± 26 nM.

`C=C/C=C/C1C(=O)N(c2cc(OC)c(OC)c(OC)c2)C1c1ccc([N+](=O)[O-])cc1` (stereo not shown) [11a, (E)-3-(Buta-1,3-dien-1-yl)-4-(4-nitrophenyl)-1-(3,4,5-trimethoxyphenyl)azetidin-2-one] showed a melting point of 133 to 134 °C. In data set [2] (setting [9]), the IC50 came to 784 ± 130 nM.

Compound `C=C/C=C/C1C(=O)N(c2cc(OC)c(OC)c(OC)c2)C1c1ccc(Cl)cc1` (stereo not shown) [11b, (E)-3-(Buta-1,3-dien-1-yl)-4-(4-chlorophenyl)-1-(3,4,5-trimethoxyphenyl)azetidin-2-one] returned a melting point of 145 to 147 °C. The IC50 in data set [2] (setting [9]) was 315 ± 40 nM.

Compound `C=C/C=C/C1C(=O)N(c2cc(OC)c(OC)c(OC)c2)C1c1ccc(Br)cc1` (stereo not shown) [11c, (E)-4-(4-Bromophenyl)-3-(buta-1,3-dien-1-yl)-1-(3,4,5-trimethoxyphenyl)azetidin-2-one] registered a melting point of 153 to 155 °C. Also, the IC50 in data set [2] (setting [9]) is 428 ± 42 nM.

`C=C/C=C/C1C(=O)N(c2cc(OC)c(OC)c(OC)c2)C1c1ccc(F)cc1` (stereo not shown) [11d, (E)-3-(Buta-1,3-dien-1-yl)-4-(4-fluorophenyl)-1-(3,4,5-trimethoxyphenyl)azetidin-2-one] had a melting point of 137 to 139 °C. The IC50 in data set [2] (setting [9]) is 3210 ± 620 nM.

The compound `C=C/C=C/C1C(=O)N(c2cc(OC)c(OC)c(OC)c2)C1c1ccccc1` (stereo not shown) [11f, (E)-3-(Buta-1,3-dien-1-yl)-4-phenyl-1-(3,4,5-trimethoxyphenyl)azetidin-2-one] yielded a melting point of 90 to 93 °C. For the same compound, the IC50 in data set [2] (setting [9]) was 19400 ± 4030 nM.

`C=CC=CC1C(=O)N(c2cc(OC)c(OC)c(OC)c2)C1c1ccc(C)cc1` (stereo not shown) [11g, 3-(Buta-1,3-dienyl)-4-p-tolyl-1-(3,4,5-trimethoxyphenyl)azetidin-2-one] displayed a melting point of 88 to 89 °C. The IC50 in data set [1] worked out at 160 ± 14 nM. In addition, the IC50 in data set [2] (setting [9]) amounted to 200 ± 40 nM.

On to `C=C/C=C/C1C(=O)N(c2cc(OC)c(OC)c(OC)c2)C1c1ccc(OCC)cc1` (stereo not shown) [11i, (E)-3-(Buta-1,3-dien-1-yl)-4-(4-ethoxyphenyl)-1-(3,4,5-trimethoxyphenyl)-azetidin-2-one], for which the melting point was in the range of 73 to 75 °C. Further, the IC50 in data set [2] (setting [9]) stood at 261 ± 50 nM.

For `C=C/C=C/C1C(=O)N(c2cc(OC)c(OC)c(OC)c2)C1c1ccc(Oc2ccccc2)cc1` (stereo not shown) [11k, (E)-3-(Buta-1,3-dien-1-yl)-4-(4-phenoxyphenyl)-1-(3,4,5-trimethoxyphenyl)azetidin-2-one], the melting point is 119 to 120 °C. Also, the IC50 in data set [2] (setting [9]) was found to be 37900 ± 3800 nM.

For the compound `C=C/C=C/C1C(=O)N(c2cc(OC)c(OC)c(OC)c2)C1c1cccc2ccccc12` (stereo not shown) [11m, (E)-3-(Buta-1,3-dien-1-yl)-4-(naphthalen-1-yl)-1-(3,4,5-trimethoxyphenyl)azetidin-2-one], the melting point fell in the range of 113 to 114 °C. Also, the IC50 in data set [2] (setting [9]) came out at 576 ± 100 nM.

As a reminder, the GI50 is the concentration that inhibits growth by half. On to `C=C/C=C/C1C(=O)N(c2cc(OC)c(OC)c(OC)c2)C1c1ccc(OC)c(O)c1` (stereo not shown) [11p, (E)-3-(Buta-1,3-dien-1-yl)-4-(3-hydroxy-4-methoxyphenyl)-1-(3,4,5-trimethoxyphenyl)azetidin-2-one], for which the “Fold Reduction in Vmax” value in data set [3] came to 1.1. Also, in data set [4] (read-out: Mean GI50, mean over all NCI 60 cell lines), the concentration for 50% growth inhibition (GI50) was 288 nM. The CC50 in data set [4] (read-out: Mean LC50) came to 91200 nM. In data set [4] (read-out: Mean TGI), the IC (TGI (total growth inhibition)) worked out at 31600 nM. Besides, the results for the IC50 (in data set [2] (setting [8]); in the data set on MDA-MB-231/ATCC) were 61 ± 8 nM and 113 nM, respectively.

The compound `C=C/C=C/C1C(=O)N(c2cc(OC)c(OC)c(OC)c2)C1c1ccc(OC)c([N+](=O)[O-])c1` (stereo not shown) [11q, (E)-3-(Buta-1,3-dien-1-yl)-4-(4-methoxy-3-nitrophenyl)-1-(3,4,5-trimethoxyphenyl)azetidin-2-one] yielded a melting point of 88 to 90 °C. The IC50 in data set [2] (setting [9]) worked out at 511 ± 90 nM.

On to `COc1ccc(C2C(CC=Cc3ccccc3)C(=O)N2c2cc(OC)c(OC)c(OC)c2)cc1` (stereo not shown) [17a, 3-Cinnamyl-4-(4-methoxyphenyl)-1-(3,4,5-trimethoxyphenyl)azetidin-2-one], for which the melting point lay in the range of 103 to 104 °C. Moreover, the IC50 in data set [2] (setting [10]) stood at 332 ± 40 nM.

With `CCOC(=O)CC1C(=O)N(c2cc(OC)c(OC)c(OC)c2)C1c1ccc(OC)cc1` (stereo not shown) [17f, Ethyl-2-(1-(3,4,5-trimethoxyphenyl)-2-(4-methoxyphenyl)-4-oxoazetidin-3-yl)acetate], the Vmax in data set [3] (37 °C, 340 nm) is 0.0038 mOD/min. Further, in data set [3], the “Fold Reduction in Vmax” value came to 2.2. In addition, the IC50 in data set [2] (setting [10]) worked out at 35 ± 3 nM.

With `COc1cc(N2C(=O)C(C3C=CCC4C(=O)N(c5ccccc5)C(=O)C43)C2c2ccc(Cl)cc2)cc(OC)c1OC` (stereo not shown) [21a, 4-(2-(4-Chlorophenyl)-1-(3,4,5-trimethoxyphenyl)-4-oxoazetidin-3-yl)-3a,4,7,7a-tetrahydro-2-phenyl-2H-isoindole-1,3-dione], the melting point fell in the range of 208 to 210 °C. Further, in data set [2] (setting [10]), the IC50 amounted to 106000 ± 13900 nM.

Compound `COc1cc(N2C(=O)C(C3C=CCC4C(=O)OC(=O)C43)C2c2ccc(Br)cc2)cc(OC)c1OC` (stereo not shown) [21b, 4-(2-(4-Bromophenyl)-1-(3,4,5-trimethoxyphenyl)-4-oxoazetidin-3-yl)-3a,4,7,7a-tetrahydroisobenzofuran-1,3-dione] returned a melting point of 242 to 244 °C. Moreover, the IC50 in data set [2] (setting [10]) was 96200 ± 13500 nM.

Compound `CCCCOc1ccc(C2C(C3C=CCC4C(=O)N(c5ccccc5)C(=O)C43)C(=O)N2c2cc(OC)c(OC)c(OC)c2)cc1` (stereo not shown) [21c, 4-(2-(4-Butoxyphenyl)-4-oxo-1-(3,4,5-trimethoxyphenyl)azetidin-3-yl)-2-phenyl-3a,4,7,7a-tetrahydro-1H-isoindole-1,3(2H)-dione] came in with a melting point of 163 to 164 °C. For the same compound, in data set [2] (setting [10]), the IC50 was determined as 38600 ± 4900 nM.

Compound `COc1ccc(C2C(C3C=CCC4C(=O)OC(=O)C43)C(=O)N2c2cc(OC)c(OC)c(OC)c2)cc1O` (stereo not shown) [21d, 3a,4,7,7a-Tetrahydro-4-(2-(3-hydroxy-4-methoxyphenyl)-1-(3,4,5-trimethoxyphenyl)-4-oxoazetidin-3-yl)isobenzofuran-1,3-dione] registered a melting point of 224 to 225 °C. Besides, the IC50 in data set [2] (setting [10]) stood at 91100 ± 14500 nM.

`COC(=O)C1=C(C(=O)OC)C(C2C(=O)N(c3cc(OC)c(OC)c(OC)c3)C2c2cccc3ccccc23)CC=C1` (stereo not shown) [22a, Dimethyl-6-(1-(3,4,5-trimethoxyphenyl)-2-(naphthalen-1-yl)-4-oxoazetidin-3-yl)cyclohexa-1,3-diene-1,2-dicarboxylate]: the IC50 in data set [5] is 142000 ± 20300 nM.
